The values that follow come from ChEMBL document CHEMBL1275597, “In vitro activity of the aminoglycoside antibiotic arbekacin against Acinetobacter baumannii-calcoaceticus isolated from war-wounded patients at Walter Reed Army Medical Center” (Antimicrob Agents Chemother, 2010).

Data set [1] concerns Acinetobacter calcoaceticus/baumannii complex. Kind of data set: Antimicrobial activity against Acinetobacter baumannii-calcoaceticus obtained from war-wounded patient assessed as susceptible isolates by tube dilution assay. It counts as functional.
Data set [2] is described as follows: Antimicrobial activity against Acinetobacter baumannii-calcoaceticus […] in presence of imipenem. The format is functional, Acinetobacter calcoaceticus/baumannii complex.
The nature of data set [3]: (§1) Antimicrobial activity against Acinetobacter baumannii-calcoaceticus obtained from war-wounded patient assessed as susceptible isolates. It counts as functional, Acinetobacter calcoaceticus/baumannii complex.
Data set [4] in a line: Antimicrobial activity against Acinetobacter baumannii-calcoaceticus obtained from war-wounded patient assessed as susceptible isolates in presence of beta-lactamase inhibitor Sulbactam. The format is functional, Acinetobacter calcoaceticus/baumannii complex.
Data set [5] can be described thus: Antimicrobial activity against Acinetobacter baumannii-calcoaceticus obtained from war-wounded patient assessed as zone of inhibition at 128 ug/ml by disk diffusion method. It counts as functional. The note with it: Acinetobacter calcoaceticus/baumannii complex; read-out: IZ.
A short description of data set [6]: Cmax in war-wounded patient infected with Acinetobacter baumannii-calcoacetius at 2 to 3 mg/kg/day. It counts as ADME, organism-based. Conditions: human, in vivo.
A short description of data set [7]: Antimicrobial activity against Acinetobacter baumannii-calcoaceticus obtained from war-wounded patient. It counts as functional. Conditions: Acinetobacter calcoaceticus/baumannii complex.
Data set [8] concerns Homo sapiens. Kind of data set: Cmax in war-wounded patient infected with Acinetobacter baumannii-calcoacetius at 5 to 7 mg/kg/day. It counts as ADME, organism-based. Conditions: in vivo.
Data set [9] concerns Acinetobacter calcoaceticus/baumannii complex. Described as §1. The format is functional.
Data set [10] can be described thus: Antimicrobial activity against Acinetobacter baumannii-calcoaceticus […] in presence of meropenem. The format is functional, Acinetobacter calcoaceticus/baumannii complex.

≈ marks a conversion by molar mass, not a printed value. Calls of active or inactive are those of the source. The rule behind the calls is not given here.

The Cmax is the highest concentration seen after dosing. What is called MIC is the lowest concentration found to suppress growth.

For the compound COLISTIN, the Activity in data set [1] was 100%.

On to POLYMYXIN B, for which, in [1], the Activity was 100%.

Turning to `C[C@@H](O)[C@H]1C(=O)N2C(C(=O)O)=C(SCCNC=N)C[C@H]12` [IMIPENEM ANHYDROUS], the “fractional inhibitory concentration index (FICI)” value in data set [2] is reported as 0.375. In addition, the Activity in data set [3] is 55%.

Turning to `CC1(C)S[C@@H]2[C@H](NC(=O)[C@H](N)c3ccccc3)C(=O)N2[C@H]1C(=O)O` [AMPICILLIN], the Activity in data set [4] is 67.3%.

As to `NCC[C@H](O)C(=O)N[C@@H]1C[C@H](N)[C@@H](O[C@H]2O[C@H](CN)CC[C@H]2N)[C@H](O)[C@H]1O[C@H]1O[C@H](CO)[C@@H](O)[C@H](N)[C@H]1O` [ARBEKACIN], the zone of inhibition at 128 µg/mL in [5] was 13 mm. Also, in data set [6], the Cmax was 20000 ng/mL. Besides, in data set [7], the MIC was 2 µg/mL (≈ 3.62 µM). The Activity in [3] is 86.5%.

Consider `NC[C@H]1O[C@H](O[C@H]2[C@H](O)[C@@H](O[C@H]3O[C@H](CO)[C@@H](O)[C@H](N)[C@H]3O)[C@H](N)C[C@@H]2N)[C@H](N)C[C@@H]1O` [TOBRAMYCIN], for which the Activity in data set [3] was 56%.

Consider `CC(C)(O/N=C(\C(=O)N[C@@H]1C(=O)N2C(C(=O)[O-])=C(C[n+]3ccccc3)CS[C@H]12)c1csc(N)n1)C(=O)O` [CEFTAZIDIME], for which, in [3], the Activity is recorded as 25%.

Turning to GENTAMICIN [listing 1 of 2 here], the Cmax in data set [8] is less than 4000 ng/mL.

Consider `CN(C)c1ccc(O)c2c1C[C@H]1C[C@H]3[C@H](N(C)C)C(O)=C(C(N)=O)C(=O)[C@@]3(O)C(O)=C1C2=O` [MINOCYCLINE], for which, in data set [3], the Activity is 92.6%.

As to `COc1c(N2CCNC(C)C2)c(F)cc2c(=O)c(C(=O)O)cn(C3CC3)c12` (stereo not drawn) [GATIFLOXACIN], the Activity in data set [3] is given as 27%.

As to `O=C(O)c1cn(C2CC2)c2cc(N3CCNCC3)c(F)cc2c1=O` [CIPROFLOXACIN], the Activity in data set [3] is given as 14.5%.

In the case of `C[C@H]1COc2c(N3CCN(C)CC3)c(F)cc3c(=O)c(C(=O)O)cn1c23.C[C@H]1COc2c(N3CCN(C)CC3)c(F)cc3c(=O)c(C(=O)O)cn1c23.O` [LEVOFLOXACIN], in data set [3], the Activity is 20.5%.

With `COc1c(N2C[C@@H]3CCCN[C@@H]3C2)c(F)cc2c(=O)c(C(=O)O)cn(C3CC3)c12`, in data set [9], the result was inactive.

In the case of GENTAMICIN [listing 2 of 2 here], the Activity in data set [9] was 14.5%.

For the compound `CCN1CCN(C(=O)N[C@@H](C(=O)N[C@@H]2C(=O)N3[C@@H]2SC(C)(C)[C@@H]3C(=O)O)c2ccccc2)C(=O)C1=O` [PIPERACILLIN], the Activity in data set [3] is on record as 9.8%.

In the case of `NCC[C@H](O)C(=O)N[C@@H]1C[C@H](N)[C@@H](O[C@H]2O[C@H](CN)[C@@H](O)[C@H](O)[C@H]2O)[C@H](O)[C@H]1O[C@H]1O[C@H](CO)[C@@H](O)[C@H](N)[C@H]1O` [AMIKACIN], the Activity in [3] is reported as 59%.

Turning to `C[C@@H](O)[C@H]1C(=O)N2C(C(=O)O)=C(S[C@@H]3CN[C@H](C(=O)N(C)C)C3)[C@H](C)[C@H]12` [MEROPENEM], in [10], the “fractional inhibitory concentration index (FICI)” value was 0.5. Moreover, in data set [3], the Activity is 53.7%.

In the case of `CO/N=C(\C(=O)N[C@@H]1C(=O)N2C(C(=O)[O-])=C(C[N+]3(C)CCCC3)CS[C@H]12)c1csc(N)n1` [CEFEPIME], the Activity in data set [3] is 32.7%.
